According to patent US9359308B2, “Pyrazine kinase inhibitors” (Portola Pharmaceuticals, Inc., priority 2011, dated 2016):
pIC50: −log10 of the molar value.

molecular target: T1, full length active recombinant SYK enzyme (Homo sapiens, UniProt P43405); assay: Inhibition of Syk tyrosine phosphorylation activity (LANCE TR-FRET kinase assay); assay type: biochemical; conditions: activity in the Syk assays, class symbols
T1 construct: full length active recombinant SYK enzyme (Millipore, Calif.); purchased Millipore
Summary of the method: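 1 nM full-length active recombinant SYK phosphorylated 550 nM biotin-DEEDYESP-OH with 100 μM ATP in 50 mM Tris pH 7.5, 5 mM MgCl2, 1 mM DTT and 3% DMSO for 1 h at room temperature. After EDTA quench, Eu-anti-phosphotyrosine/SA-APC TR-FRET was read after 1 h. IC50s came from non-linear regression.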

Row | Compound | pIC50
1 | NC(=O)c1ncc(N[C@@H]2CCCC[C@@H]2N)nc1Nc1cccnc1 [Example 417, 5-(((1R,2S)-2-aminocyclohexyl)amino)-3-(pyridin-3-ylamino)pyrazine-2-carboxamide] | > 9.00
2 | NC(=O)c1ncc(N[C@@H]2CCCC[C@@H]2N)nc1Nc1cncc(F)c1 [Example 418, 5-(((1R,2S)-2-aminocyclohexyl)amino)-3-((5-fluoropyridin-3-yl)amino)pyrazine-2-carboxamide] | 8.00 to 9.00
3 | NC(=O)c1ncc(N[C@@H]2CCCC[C@@H]2N)nc1Nc1cnc2cccnc2c1 [Example 419, 3-((1,5-naphthyridin-3-yl)amino)-5-(((1R,2S)-2-aminocyclohexyl)amino)pyrazine-2-carboxamide] | 8.00 to 9.00
4 | NC(=O)c1ncc(N[C@@H]2CCCC[C@@H]2N)nc1Nc1cnc2ncccc2c1 [Example 420, 3-((1,8-naphthyridin-3-yl)amino)-5-(((1R,2S)-2-aminocyclohexyl)amino)pyrazine-2-carboxamide] | 8.00 to 9.00
5 | CC[C@@H](Nc1cnc(C(N)=O)c(Nc2cnn3ccccc23)n1)C(N)=O [Example 421, (R)-5-((1-amino-1-oxobutan-2-yl)amino)-3-(pyrazolo[1,5-a]pyridin-3-ylamino)pyrazine-2-carboxamide] | 8.00 to 9.00
6 | NC(=O)c1ncc(N[C@@H]2CCCC[C@@H]2N)nc1Nc1cncc(-c2ncccn2)c1 [Example 422] | 8.00 to 9.00
7 | NC(=O)c1ncc(N[C@@H]2CCCC[C@@H]2N)nc1Nc1cc(-c2ncccn2)cc(-c2ncccn2)c1 [Example 423, 5-(((1R,2S)-2-aminocyclohexyl)amino)-3-((3,5-di(pyrimidin-2-yl)phenyl)amino)pyrazine-2-carboxamide] | 8.00 to 9.00
8 | NC(=O)c1ncc(N[C@@H]2CCCC[C@@H]2N)nc1Nc1cc(-n2nccn2)cc(-n2nccn2)c1 [Example 424, 5-(((1R,2S)-2-aminocyclohexyl)amino)-3-((3,5-di(2H-1,2,3-triazol-2-yl)phenyl)amino)pyrazine-2-carboxamide] | 8.00 to 9.00
9 | NC(=O)c1ncc(N[C@@H]2CCCC[C@@H]2N)nc1Nc1ccc2nccn2c1 [Example 425, 5-(((1R,2S)-2-aminocyclohexyl)amino)-3-(imidazo[1,2-a]pyridin-6-ylamino)pyrazine-2-carboxamide] | 8.00 to 9.00
10 | CC[C@@H](Nc1cnc(C(N)=O)c(Nc2ccc3nccn3c2)n1)C(N)=O [Example 426, (R)-5-((1-amino-1-oxobutan-2-yl)amino)-3-(imidazo[1,2-a]pyridin-6-ylamino)pyrazine-2-carboxamide] | 8.00 to 9.00
11 | NC(=O)c1ncc(N[C@@H]2CCCC[C@@H]2N)nc1Nc1ccn2ccnc2c1 [Example 427, 5-(((1R,2S)-2-aminocyclohexyl)amino)-3-(imidazo[1,2-a]pyridin-7-ylamino)pyrazine-2-carboxamide] | 8.00 to 9.00
12 | NC(=O)c1ncc(N[C@@H]2CCCC[C@@H]2N)nc1Nc1csc2ncccc12 [Example 428, 5-(((1R,2S)-2-aminocyclohexyl)amino)-3-(thieno[2,3-b]pyridin-3-ylamino)pyrazine-2-carboxamide] | > 9.00
13 | NC(=O)c1ncc(N[C@@H]2CCCC[C@@H]2N)nc1Nc1cc(-n2ccnn2)cc(-n2nccn2)c1 [Example 429, 3-((3-(1H-1,2,3-triazol-1-yl)-5-(2H-1,2,3-triazol-2-yl)phenyl)amino)-5-(((1R,2S)-2-aminocyclohexyl)amino)pyrazine-2-carboxamide] | 8.00 to 9.00
14 | NC(=O)c1ncc(N[C@@H]2CCCC[C@@H]2N)nc1Nc1cnsc1 [Example 430, 5-(((1R,2S)-2-aminocyclohexyl)amino)-3-(isothiazol-4-ylamino)pyrazine-2-carboxamide] | 7.00 to 8.00
15 | NC(=O)c1ncc(N[C@@H]2CCCC[C@@H]2N)nc1Nc1cc(N2CCOCC2)cc(-n2cccn2)c1 [Example 431, 5-(((1R,2S)-2-aminocyclohexyl)amino)-3-((3-morpholino-5-(1H-pyrazol-1-yl)phenyl)amino)pyrazine-2-carboxamide] | 8.00 to 9.00
16 | NC(=O)c1ncc(N[C@@H]2CCCC[C@@H]2N)nc1Nc1cc(-n2ccnn2)cc(-n2ccnn2)c1 [Example 432, 5-(((1R,2S)-2-aminocyclohexyl)amino)-3-((3,5-di(1H-1,2,3-triazol-1-yl)phenyl)amino)pyrazine-2-carboxamide] | 8.00 to 9.00
17 | NC(=O)c1ncc(N[C@@H]2CCCC[C@@H]2N)nc1Nc1cnc2ccncc2c1 [Example 433, 3-((1,6-naphthyridin-3-yl)amino)-5-(((1R,2S)-2-aminocyclohexyl)amino)pyrazine-2-carboxamide] | 8.00 to 9.00
18 | NC(=O)c1ncc(N[C@@H]2CCCC[C@@H]2N)nc1Nc1cnc2scnc2c1 [Example 434, 5-(((1R,2S)-2-aminocyclohexyl)amino)-3-(thiazolo[5,4-b]pyridin-6-ylamino)pyrazine-2-carboxamide] | 8.00 to 9.00

Row | Compound | pIC50
19 | NC(=O)c1ncc(N[C@@H]2CCCC[C@@H]2N)nc1Nc1ccc2cccnc2c1 [Example 435, 5-(((1R,2S)-2-aminocyclohexyl)amino)-3-(quinolin-7-ylamino)pyrazine-2-carboxamide] | 8.00 to 9.00
20 | NC(=O)c1ncc(N[C@@H]2CCCC[C@@H]2N)nc1Nc1cccc2ncccc12 [Example 436, 5-(((1R,2S)-2-aminocyclohexyl)amino)-3-(quinolin-5-ylamino)pyrazine-2-carboxamide] | > 9.00
21 | NC(=O)c1ncc(N[C@@H]2CCCC[C@@H]2N)nc1Nc1ccnc2ncccc12 [Example 437, 3-((1,8-naphthyridin-4-yl)amino)-5-(((1R,2S)-2-aminocyclohexyl)amino)pyrazine-2-carboxamide] | 8.00 to 9.00
22 | CCC(=O)N1CCC(c2ccc(Nc3nc(N[C@@H]4CCCC[C@@H]4N)cnc3C(N)=O)cc2)CC1 [Example 438, 5-(((1R,2S)-2-aminocyclohexyl)amino)-3-((4-(1-propionylpiperidin-4-yl)phenyl)amino)pyrazine-2-carboxamide] | 8.00 to 9.00
23 | NC(=O)c1ncc(N[C@@H]2CCCC[C@@H]2N)nc1Nc1ccc(N2CCOCC2)c(F)c1 [Example 439, 5-(((1R,2S)-2-aminocyclohexyl)amino)-3-((3-fluoro-4-morpholinophenyl)amino)pyrazine-2-carboxamide] | 8.00 to 9.00
24 | NC(=O)c1ncc(N[C@@H]2CCCC[C@@H]2N)nc1Nc1ccc(-n2ccccc2=O)cc1 [Example 440, 5-(((1R,2S)-2-aminocyclohexyl)amino)-3-((4-(2-oxopyridin-1(2H)-yl)phenyl)amino)pyrazine-2-carboxamide] | 7.00 to 8.00
25 | NC(=O)c1ncc(N[C@@H]2CCCC[C@@H]2N)nc1Nc1ccc(N2CCCCC2=O)cc1 [Example 441, 5-(((1R,2S)-2-aminocyclohexyl)amino)-3-((4-(2-oxopiperidin-1-yl)phenyl)amino)pyrazine-2-carboxamide] | 7.00 to 8.00
26 | NC(=O)c1ncc(N[C@@H]2CCCC[C@@H]2N)nc1Nc1ccc(N2CCOCC2=O)cc1 [Example 442, 5-(((1R,2S)-2-aminocyclohexyl)amino)-3-((4-(3-oxomorpholino)phenyl)amino)pyrazine-2-carboxamide] | 7.00 to 8.00
27 | NC(=O)c1ncc(N[C@@H]2CCCC[C@@H]2N)nc1Nc1ccc(N2CCOCC2=O)c(F)c1 [Example 443, 5-(((1R,2S)-2-aminocyclohexyl)amino)-3-((3-fluoro-4-(3-oxomorpholino)phenyl)amino)pyrazine-2-carboxamide] | 7.00 to 8.00
28 | NC(=O)c1ncc(N[C@@H]2CCCC[C@@H]2N)nc1Nc1cccc(-c2ncco2)c1 [Example 444, 5-(((1R,2S)-2-aminocyclohexyl)amino)-3-((3-(oxazol-2-yl)phenyl)amino)pyrazine-2-carboxamide] | > 9.00
29 | NC(=O)c1ncc(N[C@@H]2CCCC[C@@H]2N)nc1Nc1ccc(-c2ncco2)cc1 [Example 445, 5-(((1R,2S)-2-aminocyclohexyl)amino)-3-((4-(oxazol-2-yl)phenyl)amino)pyrazine-2-carboxamide] | 8.00 to 9.00
30 | CC[C@@H](Nc1cnc(C(N)=O)c(Nc2ccc(-c3ncco3)cc2)n1)C(N)=O [Example 446] | 8.00 to 9.00
31 | NC(=O)c1ncc(N[C@@H]2CCCC(F)(F)[C@@H]2N)nc1Nc1cnn2ccccc12 [Example 447, 5-(((1R,2R)-2-amino-3,3-difluorocyclohexyl)amino)-3-(pyrazolo[1,5-a]pyridin-3-ylamino)pyrazine-2-carboxamide] | 8.00 to 9.00
32 | NC(=O)c1ncc(N[C@@H]2CCCC(F)(F)[C@@H]2N)nc1Nc1csc2ncccc12 [Example 448, 5-(((1R,2R)-2-amino-3,3-difluorocyclohexyl)amino)-3-(thieno[2,3-b]pyridin-3-ylamino)pyrazine-2-carboxamide] | 8.00 to 9.00
33 | NC(=O)c1ncc(N[C@@H]2CCCC[C@@H]2N)nc1Nc1cncs1 [Example 449, 5-(((1R,2S)-2-aminocyclohexyl)amino)-3-(thiazol-5-ylamino)pyrazine-2-carboxamide] | < 6.00
34 | CC[C@@H](Nc1cnc(C(N)=O)c(Nc2cccc(-c3ncco3)c2)n1)C(N)=O [Example 450, (R)-5-((1-amino-1-oxobutan-2-yl)amino)-3-((3-(oxazol-2-yl)phenyl)amino)pyrazine-2-carboxamide] | 7.00 to 8.00
35 | NC(=O)c1ncc(N[C@@H]2CCCC(F)(F)[C@@H]2N)nc1Nc1ccc2c(c1)COCC2 [Example 451, 5-(((1R,2R)-2-amino-3,3-difluorocyclohexyl)amino)-3-(isochroman-7-ylamino)pyrazine-2-carboxamide] | 8.00 to 9.00
